Test results as given in ChEMBL document CHEMBL3856283, “Structure-based design of ester compounds to inhibit MLL complex catalytic activity by targeting mixed lineage leukemia 1 (MLL1)-WDR5 interaction” (Bioorg Med Chem, 2016).
pIC50, pKd: −log10 of the molar value.

Assays:
[1] = molecular target: T1, WD repeat-containing protein 5 (Homo sapiens, UniProt P61964); assay: Inhibition of C-terminal 5-FAM-ARTEVHLRKS binding to WDR5 (unknown origin) by fluorescence polarization assay
[2] = Antiproliferative activity against human K562 cells harboring BCR-ABL assessed as inhibition of cell viability after 72 hrs by CCK8-based colorimetric assay; type: functional; conditions: K562, 72 h
[3] = Antiproliferative activity against human MV4-11 cells harboring MLL-AF4 assessed as inhibition of cell viability after 72 hrs by CCK8-based colorimetric assay; type: functional; conditions: MV4-11, 72 h
[4] = Permeability of the compound after 4 hrs by PAMPA; type: ADME; conditions: read-out: permeability
K562 = assay: Selectivity ratio of IC50 for human K562 cells harboring BCR-ABL to IC50 for human MV4-11 cells harboring MLL-AF4; type: functional
[5] = molecular target: T1, WD repeat-containing protein 5; assay: Inhibition of N-terminal FITC-GSARAEVHLRKS binding to WDR5 (unknown origin) by fluorescence polarization assay
[6] = Antiproliferative activity against human MV4-11 cells harboring MLL-AF4 after 7 days by CellTiter-Glo luminescent cell viability Assay; type: functional, cell-based; conditions: MV4-11, 168 h
[7] = molecular target: MLL1/ASH2L/RBBP5/WDR5 complex (Homo sapiens, UniProt P61964+Q03164+Q15291+Q9UBL3); assay: Inhibition of recombinant MLL1 (unknown origin) interaction with recombinant ASH2L/RBBP5/WDR5 (unknown origin) assessed as decrease in histone methylation after 60 mins by Alpha Screen assay; type: protein-complex assay

SMILES | pIC50 [1] | Papp at 4 h [4] | pIC50 [2] | pIC50 [3] | also measured
COC(=O)c1ccc(N2CCN(C)CC2)c(NC(=O)c2cc([N+](=O)[O-])c(F)c(C)c2Cl)c1 | 6.61 | 74.8 ×10⁻⁶ cm/s | 4.76 | 5.47 | –
Cc1c(F)c([N+](=O)[O-])cc(C(=O)Nc2cc(C(=O)OC3CCCCC3)ccc2N2CCN(C)CC2)c1Cl | < 7.70 | – | – | – | –
Cc1c(F)ccc(C(=O)Nc2cc(C(=O)OC(C)C)ccc2N2CCN(C)CC2)c1Cl | 6.58 | 49.8 ×10⁻⁶ cm/s | < 4.00 | 4.24 | –
Cc1c(F)ccc(C(=O)Nc2cc(C(=O)OC3CCCCC3)ccc2N2CCN(C)CC2)c1Cl | < 4.70 | – | – | – | –
CC(C)NCC(O)COc1cccc2ccccc12 (stereo unspecified) [PROPRANOLOL] | – | 98.7 ×10⁻⁶ cm/s | – | – | –
COC(=O)c1ccc(N2CCN(C)CC2)c(NC(=O)c2ccc(F)c(N)c2)c1 | < 7.70 | – | – | – | –
COC(=O)c1ccc(N2CCN(C)CC2)c(NC(=O)c2cccc(OC)c2)c1 | – | – | – | – | pKd [5]: 5.52
CN1CCN(c2ccc(C(=O)OC3CCCCC3)cc2NC(=O)c2ccc(F)c(N)c2)CC1 | < 7.70 | – | – | – | –
CCC(CC)(NC(=O)C(C)C)C(=O)N[C@@H](CCCNC(=N)N)C(=O)NC1(C(=O)NC(c2ccc(F)cc2)c2ccc(F)cc2)CCCC1 | – | – | 4.42 | 4.68 | pIC50 [6]: 4.60
Cc1c(F)c(N)cc(C(=O)Nc2cc(C(=O)Oc3ccccc3)ccc2N2CCN(C)CC2)c1Cl | 7.58 | 38 ×10⁻⁶ cm/s | 4.48 | 4.18 | pIC50 [7]: 5.27
Cc1c(F)c(N)cc(C(=O)Nc2cc(C(=O)OC3CCCCC3)ccc2N2CCN(C)CC2)c1Cl | 7.23 | 5.6 ×10⁻⁶ cm/s | < 4.00 | < 4.00 | –

Further lines, with some results ahead:

pIC50 [1] | Papp at 4 h [4] | SMILES | pIC50 [2] | pIC50 [3] | also measured
6.79 | 48 ×10⁻⁶ cm/s | Cc1c(F)ccc(C(=O)Nc2cc(C(=O)Oc3ccccc3)ccc2N2CCN(C)CC2)c1Cl | 4.27 | 4.34 | –
< 4.70 | – | CN1CCN(c2ccc(C(=O)OC3CCCCC3)cc2NC(=O)c2ccc(F)c([N+](=O)[O-])c2)CC1 | – | – | –
6.09 | 56.3 ×10⁻⁶ cm/s | Cc1c(F)c([N+](=O)[O-])cc(C(=O)Nc2cc(C(=O)Oc3ccccc3)ccc2N2CCN(C)CC2)c1Cl | 4.80 | 5.00 | –
< 7.70 | – | CC(C)OC(=O)c1ccc(N2CCN(C)CC2)c(NC(=O)c2ccc(F)c(N)c2)c1 | – | – | –
6.34 | 52.4 ×10⁻⁶ cm/s | COC(=O)c1ccc(N2CCN(C)CC2)c(NC(=O)c2ccc(F)c([N+](=O)[O-])c2)c1 | 4.24 | 5.33 | Ratio IC50 (K562): 10
5.93 | 61.4 ×10⁻⁶ cm/s | CC(C)OC(=O)c1ccc(N2CCN(C)CC2)c(NC(=O)c2ccc(F)c([N+](=O)[O-])c2)c1 | 4.24 | 4.88 | –
< 7.70 | – | CN1CCN(c2ccc(C(=O)O)cc2NC(=O)c2ccc(F)c([N+](=O)[O-])c2)CC1 | – | – | –
6.55 | 44.9 ×10⁻⁶ cm/s | CCOC(=O)c1ccc(N2CCN(C)CC2)c(NC(=O)c2ccc(F)c(C)c2Cl)c1 | 4.04 | 4.30 | –
< 7.70 | – | CCOC(=O)c1ccc(N2CCN(C)CC2)c(NC(=O)c2ccc(F)c([N+](=O)[O-])c2)c1 | – | – | –
< 4.70 | – | CN1CCN(c2ccc(C(=O)Oc3ccccc3)cc2NC(=O)c2ccc(F)c(N)c2)CC1 | – | – | –
6.32 | 60 ×10⁻⁶ cm/s | CN1CCN(c2ccc(C(=O)Oc3ccccc3)cc2NC(=O)c2ccc(F)c([N+](=O)[O-])c2)CC1 | 4.94 | 4.97 | –
6.36 | 59.8 ×10⁻⁶ cm/s | COC(=O)c1ccc(N2CCN(C)CC2)c(NC(=O)c2ccc(F)c(C)c2Cl)c1 | < 4.00 | < 4.00 | –
< 4.70 | – | Cc1c(F)ccc(C(=O)Nc2cc(C(=O)O)ccc2N2CCN(C)CC2)c1Cl | – | – | –
7.33 | 52.9 ×10⁻⁶ cm/s | COC(=O)c1ccc(N2CCN(C)CC2)c(NC(=O)c2cc(N)c(F)c(C)c2Cl)c1 | < 4.00 | < 4.00 | pIC50 [7]: 5.34
